By Kd is commonly meant the equilibrium constant for the complex coming apart. A higher Kd goes with weaker binding.

Active and inactive are the calls of the source. The rule behind the calls is not given here.

In assay [1] the target is Envelope glycoprotein gp160 (Human immunodeficiency virus 1) (UniProt Q6QLK5). The experiment in a line: Binding affinity to HIV1JRFL envelope glycoprotein expressed in human HOS cells assessed as fold change in binding to CoRBS 17b incubated for 1 hrs by cell based ELISA relative to BNM-III-170. To be noted: JRFL. (ELISA stands for enzyme-linked immunosorbent assay.)
The target of assay [2] is Envelope glycoprotein gp160 (Human immunodeficiency virus 1, UniProt Q6QLK5). The experiment in a line: Binding affinity to HIV1 YU-2 gp120 by isothermal titration calorimetric analysis. (In general: In ITC the heat of successive injections is recorded.)
In assay [3] the test system is Human immunodeficiency virus 1. The experiment in a line: Induction of sensitization to HIV-1CH58TF infected in CD4-positive T cells assessed as […] cellular cytotoxicity at 50 uM incubated for 4 to 6 hrs by AquaVivid/eFluor670 staining based by flow cytometric analysis. Format: functional, organism-based. A general note: A flow cytometer gives signals particle by particle.

Sequence of Envelope glycoprotein gp160 (Human immunodeficiency virus 1) (Q6QLK5 1-814): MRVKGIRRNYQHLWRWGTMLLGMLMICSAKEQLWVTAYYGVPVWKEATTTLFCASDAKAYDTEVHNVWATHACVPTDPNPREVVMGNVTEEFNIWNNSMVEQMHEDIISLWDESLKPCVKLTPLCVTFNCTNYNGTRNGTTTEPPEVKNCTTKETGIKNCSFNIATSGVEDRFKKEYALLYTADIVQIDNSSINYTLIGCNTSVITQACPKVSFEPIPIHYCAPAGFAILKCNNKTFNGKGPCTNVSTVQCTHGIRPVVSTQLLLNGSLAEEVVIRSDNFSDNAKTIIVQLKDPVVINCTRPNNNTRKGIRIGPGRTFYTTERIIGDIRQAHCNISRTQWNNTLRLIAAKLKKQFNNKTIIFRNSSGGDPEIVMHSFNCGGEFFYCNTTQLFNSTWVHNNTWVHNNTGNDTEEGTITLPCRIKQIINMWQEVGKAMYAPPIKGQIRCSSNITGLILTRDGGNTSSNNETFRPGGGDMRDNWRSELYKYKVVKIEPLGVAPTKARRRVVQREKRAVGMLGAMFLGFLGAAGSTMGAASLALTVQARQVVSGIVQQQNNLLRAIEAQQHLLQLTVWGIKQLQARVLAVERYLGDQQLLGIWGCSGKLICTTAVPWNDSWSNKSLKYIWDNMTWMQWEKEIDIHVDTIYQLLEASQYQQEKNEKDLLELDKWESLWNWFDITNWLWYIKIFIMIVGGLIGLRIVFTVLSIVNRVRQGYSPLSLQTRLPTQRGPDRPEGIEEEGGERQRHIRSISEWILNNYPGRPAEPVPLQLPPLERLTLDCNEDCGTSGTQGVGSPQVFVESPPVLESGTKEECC
Sequence of Envelope glycoprotein gp160 (Q6QLK5 whole entry): as the sequence (Q6QLK5 1-814) above

Take `CS(=O)(=O)N1CCCC(NC(=O)c2ccc(Cl)c(F)c2)C1` (racemic): in assay [1], the fold change (FC) turned out to be 0.08. For the compound `CS(=O)(=O)N1CCC[C@H](C(=O)Oc2ccc(Cl)c(F)c2)C1`, in assay [1], the fold change (FC) was 0.07. For the compound `CCCNC(=N)N1CCC[C@H](C(=O)Nc2ccc(Cl)c(F)c2)C1`, the fold change (FC) in assay [1] was 0.85. Take `CCS(=O)(=O)N1CCCC(C(=O)Nc2ccc(Cl)c(F)c2)C1` (racemic): the fold change (FC) in assay [1] came out at 0.42. In the case of `CS(=O)(=O)N1CCC[C@H](C(=O)Nc2ccc(Br)cc2)C1`, in assay [1], the fold change (FC) came to 0.36. Regarding `CS(=O)(=O)N1CCC[C@@H](C(=O)Nc2ccc(Cl)cc2)C1`, the fold change (FC) in assay [1] came out at 0.08. `CCS(=O)(=O)N1CCC[C@H](C(=O)Nc2ccc(Cl)c(F)c2)C1`: the fold change (FC) in assay [1] was 0.35.

In assay [2], `CS(=O)(=O)N1CCC[C@H](C(=O)Nc2ccc(Cl)cc2)C1` showed a Kd of over 10 µM. Besides, the fold change (FC) in assay [1] was found to be 0.31. For the compound `CCCNC(=O)N1C[C@H](N)C[C@H](C(=O)Nc2ccc(Cl)c(F)c2)C1`, the fold change (FC) in assay [1] stood at 0.11. As to `CS(=O)(=O)N1CCC(C(=O)Nc2ccc(Cl)c(F)c2)CC1`, the fold change (FC) in assay [1] was 0.21. Still for that read-out and setting: the result for `CCCOC(=O)N1CCC[C@H](C(=O)Nc2ccc(Cl)c(F)c2)C1` reads 0.51. `CS(=O)(=O)N1CCC[C@H](C(=O)Nc2ccc(Cl)c(F)c2)C1` had a Kd in assay [2] of 2.8 µM. Besides, in assay [1], the fold change (FC) was found to be 0.58. In addition, in assay [3], the result was Active. Compound `COC(=O)N1CCC[C@H](C(=O)Nc2ccc(Cl)c(F)c2)C1` had a Kd in assay [2] of 1.8 µM. For the same compound, the fold change (FC) in assay [1] was determined as 0.5. Moreover, in assay [3], the result was Active. `NCCCNC(=O)N1C[C@H](N)C[C@H](C(=O)Nc2ccc(Cl)c(F)c2)C1`: the fold change (FC) in assay [1] worked out at 0.06. On the same count and under the same terms, the result for `CS(=O)(=O)N1CCOC(C(=O)Nc2ccc(Cl)c(F)c2)C1` (racemic) reads 0.28. Regarding `CS(=O)(=O)N1CCC(C(=O)Nc2ccc(Cl)c(F)c2)C1` (racemic), the fold change (FC) in assay [1] came out at 0.36. For the compound `CS(=O)(=O)N1CCNC(C(=O)Nc2ccc(Cl)c(F)c2)C1` (racemic), the fold change (FC) in assay [1] amounted to 0.1.

For `NCCNC(=O)N1C[C@H](N)C[C@H](C(=O)Nc2ccc(Cl)c(F)c2)C1`, the fold change (FC) in assay [1] stood at 0.06. For the compound `O=C(Nc1ccc(Cl)c(F)c1)[C@@H]1CCCOC1`, the fold change (FC) in assay [1] was determined as 0.28. As to `NCCOC(=O)N1C[C@H](N)C[C@H](C(=O)Nc2ccc(Cl)c(F)c2)C1`, the fold change (FC) in assay [1] stood at 0.07. Turning to `O=C(Nc1ccc(Cl)c(F)c1)[C@H]1CCCOC1`, the fold change (FC) in assay [1] stood at 0.58. On the same count and under the same terms, next, `NCCCNC(=O)N1CCC[C@H](C(=O)Nc2ccc(Cl)c(F)c2)C1`: 0.25; `O=C(Nc1ccc(Cl)c(F)c1)[C@H]1CCCN(S(=O)(=O)c2ccccc2)C1`: 0.45; `CC(C)COC(=O)N1CCC[C@H](C(=O)Nc2ccc(Cl)c(F)c2)C1`: 0.62. As for `NCCNC(=O)N1CCC[C@H](C(=O)Nc2ccc(Cl)c(F)c2)C1`, the fold change (FC) in assay [1] came to 0.58. The result in assay [3] was Active. With `CS(=O)(=O)N1CC(C(=O)Nc2ccc(Cl)c(F)c2)Cc2ccccc21` (racemic), the fold change (FC) in assay [1] stood at 0.24.

With `CCOC(=O)N1CCC[C@H](C(=O)Nc2ccc(Cl)c(F)c2)C1`, binding in assay [2] was characterised by a dissociation constant (Kd) of 0.77 µM. Besides, the fold change (FC) in assay [1] stood at 0.53. For the same compound, the outcome in assay [3] was Active. As to `O=C(Nc1ccc(Cl)c(F)c1)C1CCCOC1` (racemic), the fold change (FC) in assay [1] turned out to be 0.48. For `CCCNC(=O)N1CCC[C@H](C(=O)Nc2ccc(Cl)c(F)c2)C1`, in assay [1], the fold change (FC) was found to be 0.55. Further, the result in assay [3] was Active.

The values above are taken from ChEMBL document CHEMBL4342492, “Optimization of Small Molecules That Sensitize HIV-1 Infected Cells to Antibody-Dependent Cellular Cytotoxicity” (ACS Med Chem Lett, 2020).
